Test results reported in PubChem BioAssay (NCI).
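A five-concentration, 48-hour dose response in 96-well plates underlies each endpoint, interpolated linearly between surrounding concentrations. Abbreviation: GI50, concentration required for 50% inhibition of growth. At the TGI there is no net growth.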

What was measured:
Experiment in all cases: NCI-60 cell line screen, 48 h
[1] = test system: U251 CNS
[2] = test system: NCI-H460 lung
[3] = test system: K-562 leukemia
[4] = test system: RXF 393 renal
[5] = test system: CCRF-CEM leukemia
[6] = test system: SK-OV-3 ovarian
[7] = test system: SF-295 CNS
[8] = test system: UACC-257 melanoma
[9] = test system: A498 renal
[10] = test system: SN12C renal
[11] = test system: SK-MEL-28 melanoma
[12] = test system: SNB-19 CNS
[13] = test system: SW-620 colon
[14] = test system: DU-145 prostate
[15] = test system: OVCAR-5 ovarian
[16] = test system: SK-MEL-2 melanoma
[17] = test system: HT29 colon
[18] = test system: UO-31 renal
[19] = test system: OVCAR-3 ovarian
[20] = test system: HOP-62 NSCLC
[21] = test system: MOLT-4 leukemia
[22] = test system: CAKI-1 renal
[23] = test system: NCI-H226 lung
[24] = test system: MDA-MB-231 breast
[25] = test system: HCT-15 colon
[26] = test system: OVCAR-8 ovarian
[27] = test system: ACHN renal
[28] = test system: LOX IMVI melanoma
[29] = test system: MALME-3M melanoma

Question: What does the source list for `Oc1[nH]c2ccccc2c1/C=c1/ccc2c(c1)N=C(c1cc(F)cc(F)c1)N=2`?
Answer: GI50 [1]: 3.89 µM; TGI [1]: 17.6 µM; GI50 [2]: 7.04 µM; TGI [2]: 22.8 µM; GI50 [3]: 3.28 µM; TGI [3]: 13.8 µM; GI50 [4]: 8.2 µM; TGI [4]: 25 µM; GI50 [5]: 2.44 µM; TGI [5]: 6.91 µM; GI50 [6]: 14.2 µM; TGI [6]: 29 µM; GI50 [7]: 2.84 µM; TGI [7]: 10.9 µM; GI50 [8]: 10.6 µM; TGI [8]: 26.4 µM; GI50 [9]: 1.53 µM; TGI [9]: 17 µM; GI50 [10]: 11.4 µM; TGI [10]: 30 µM; GI50 [11]: 7.24 µM; TGI [11]: 20.2 µM; GI50 [12]: 9.62 µM; TGI [12]: 28 µM; GI50 [13]: 3.55 µM; TGI [13]: 15.8 µM; GI50 [14]: 10.2 µM; TGI [14]: 22.2 µM; GI50 [15]: 16.8 µM; TGI [15]: 36.4 µM; GI50 [16]: 5.71 µM; TGI [16]: 20.8 µM; GI50 [17]: 3.6 µM; TGI [17]: 16.2 µM; GI50 [18]: 3.42 µM; TGI [18]: 20.1 µM; GI50 [19]: 5 µM; TGI [19]: 17.9 µM; GI50 [20]: 10.4 µM; TGI [20]: 25.2 µM; GI50 [21]: 3.53 µM; TGI [21]: 14.6 µM; GI50 [22]: 2.47 µM; TGI [22]: 15.1 µM; GI50 [23]: 11.4 µM; TGI [23]: 34.5 µM; GI50 [24]: 3.63 µM; TGI [24]: 19.5 µM; GI50 [25]: 3.52 µM; TGI [25]: 14.1 µM; GI50 [26]: 4.56 µM; TGI [26]: 33.3 µM; GI50 [27]: 7.39 µM; TGI [27]: 21.3 µM; GI50 [28]: 3.94 µM; TGI [28]: 18.9 µM; GI50 [29]: 10.1 µM
